Experimental data from patent publication US12128035B2, “Activating pyruvate kinase R” (Novo Nordisk Health Care AG, priority 2021, dated 2024).
“Also recorded” adds a separate entry of the source.

Assays:
[1] = system: p50 (PO2 at 50% hemoglobin saturation); experiment: Phase 1 SAD/MAD: p50 (Hemox Analyzer) in healthy volunteers; type: in vivo, human; details: for Mean p50 Value: 24 hours after first dose on day 14; for Mean Absolute Change in p50 / Mean Percentage Change in p50: 24 hours after first dose on day 14, relative to baseline; for median reduction in p50: all dose levels; for Mean Absolute Change in p50 (mmHg): 24 hours after dose, relative to baseline
Description: In the SAD cohorts, the subjects' p50 (PO2 at 50% hemoglobin saturation) were determined 24-hours post-dose. p50 measured 24 hours after a single dose of Compound 1 were reduced at all dose levels tested (median reduction ranged from ˜3-5 mmHg). Table 17 reports the mean absolute change in p50, relative to baseline, measured 24 hours after a single dose of Compound 1 (200 mg, 400 mg, 700 mg, or 1000 mg) or placebo in healthy volunteers.
In the MAD cohorts, the subjects' p50 (PO2 at 50% hemoglobin saturation) were determined on day 14. p50 values measured after 14 days of twice daily dosing were reduced at all dose levels tested (median reduction ranged from ˜3-5 mmHg). Table 19 reports the mean p50 value and the mean absolute change and percentage change in p50, relative to baseline, measured 24 hours after the first dose given on day 14 in healthy volunteers who received daily doses of Compound 1 (100 mg BID, 200 mg BID, 300 mg BID, or 400 mg QD) or placebo for 14 days.
The oxygen affinity of RBCs was measured in patient blood using a Hemox Analyzer (TCS Scientific Corp.), an automatic system for the recording of blood oxygen equilibrium curves and related phenomena. The Hemox Analyzer was used according to standard methods to determine the hemoglobin-oxygen dissociation curves for whole blood samples, numerically characterized by the p50, the partial pressure of oxygen at which hemoglobin is 50% saturated. The operating principle of the Hemox-Analyzer is based on dual-wavelength spectrophotometry for the measurement of the optical properties of hemoglobin and a Clark electrode for measuring the oxygen partial pressure in millimeters of mercury. Whole blood is diluted and placed into a special plastic cuvette that is maintained at 37° C. To perform the analysis, a beam of polychromatic light is passed through the cuvette and is made monochromatic prior to reaching the photomultiplier detectors. In the case of hemoglobin, the wavelength of maximum absorbance is the measuring wavelength (560 nm), while the reference wavelength is at the isosbestic point at (570 nm). The absorbance at the isosbestic point remains unchanged during the deoxygenation process of the hemoglobin, however the measuring wavelength (560 nm) undergoes a drastic change in absorbance. This change is detected by the electronic circuitry and is plotted as the log/ratio change between the two wavelengths. The log/ratio measurement at 560 nm and 570 nm is utilized to measure the optical absorbance change during the deoxygenation of the hemoglobin. Simultaneously with the measurement of the hemoglobin absorbance, the oxygen concentration is directly measured in the sample using a Clark electrode. Under normal atmospheric conditions of 760 mm of mercury the oxygen concentration (i.e., the oxygen partial pressure) is 149 mm of mercury. This saturation point is used for full-scale calibration of the computer prior to starting the plotting of the curve. When the oxygen is being replaced by an inert gas (nitrogen) in a continuous procedure, hemoglobin becomes deoxygenated.

aromatase = target: T1, aromatase (Homo sapiens, UniProt P11511); experiment: Aromatase inhibition; details: clinical trials and non-clinical testing
T1 construct: endogenous in cells; host or cells: H295R adreno-cortical carcinoma cells; healthy human subjects in vivo
T1 sequence (P11511 1-503): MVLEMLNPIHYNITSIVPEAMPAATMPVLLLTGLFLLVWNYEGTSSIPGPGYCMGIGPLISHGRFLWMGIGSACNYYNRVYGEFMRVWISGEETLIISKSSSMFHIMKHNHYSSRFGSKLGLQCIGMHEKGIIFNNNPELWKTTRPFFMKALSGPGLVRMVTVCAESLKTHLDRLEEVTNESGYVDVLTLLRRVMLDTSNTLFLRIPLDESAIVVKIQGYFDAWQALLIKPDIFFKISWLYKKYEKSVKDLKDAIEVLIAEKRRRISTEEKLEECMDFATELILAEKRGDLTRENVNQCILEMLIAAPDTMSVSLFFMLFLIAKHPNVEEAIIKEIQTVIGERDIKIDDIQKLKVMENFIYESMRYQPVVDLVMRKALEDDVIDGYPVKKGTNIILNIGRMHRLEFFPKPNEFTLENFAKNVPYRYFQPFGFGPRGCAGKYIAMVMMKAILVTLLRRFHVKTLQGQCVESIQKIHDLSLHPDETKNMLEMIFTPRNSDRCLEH
Text: Aromatase is an enzyme encoded by the CYP19A1 gene. It is located in the endoplasmic reticulum of estrogen-producing cells and catalyzes the rate-limiting step in the conversion of androgens to estrogens in many tissues. Aromatase is a cytochrome P-450 hemoprotein-containing enzyme complex that catalyzes the rate-limiting step in the production of estrogens, i.e. the conversion of androstenedione and testosterone, via three hydroxylation steps, to estrone and estradiol. Aromatase activity is present in many tissues, such as the ovaries, adipose tissue, muscle, liver, breast tissue, and in malignant breast tumors. The main sources of circulating estrogens are the ovaries in premenopausal women and adipose tissue in post-menopausal women. Aromatase catalyzes the conversion of androgens to estrone (E1), which is further converted to the potent estrogen estradiol (E2) by the enzyme 17β-HSD type 1 in the granulosa cell.
Aromatase is a key enzyme in the steroidogenic pathway that catalyzes the conversion of androgens, including testosterone, into estradiol. […]
Effects on circulating levels of estradiol and testosterone in male and female healthy subjects receiving Compound 1 or placebo for a treatment period of 14 days were evaluated. […] Testosterone and estradiol levels were assessed prior to dosing (baseline), and then on days 8, 14 and 17.

O=C([C@H](CO)c1ccccc1)N1CC2=C(C1)CN(S(=O)(=O)c1cnc3c(c1)OCCO3)C2 (single isomer, unassigned) [Compound 1]
Mean p50 Value ([1]; HV 100 mg BID): 22.96 mmHg | Mean Absolute Change in p50 ([1]; HV 100 mg BID): −3.26 mmHg | Mean Percentage Change in p50 ([1]; HV 100 mg BID): −12.42% | Mean p50 Value ([1]; HV 200 mg BID): 22.33 mmHg | Mean Absolute Change in p50 ([1]; HV 200 mg BID): −5.34 mmHg | Mean Percentage Change in p50 ([1]; HV 200 mg BID): −19.33% | Mean p50 Value ([1]; HV 300 mg BID): 21.69 mmHg | Mean Absolute Change in p50 ([1]; HV 300 mg BID): −4.24 mmHg | Mean Percentage Change in p50 ([1]; HV 300 mg BID): −16.05% | Mean p50 Value ([1]; HV 400 mg QD): 21.75 mmHg | Mean Absolute Change in p50 ([1]; HV 400 mg QD): −4.09 mmHg | Mean Percentage Change in p50 ([1]; HV 400 mg QD): −15.76% | median reduction in p50 ([1]; HV MAD cohorts, after 14 days of dosing): 3-5 mmHg | Mean Maximum Percent Change from Baseline, p50 ([1]; HV MAD, all doses and timepoints (N = 36)): −15.9% | median reduction in p50 ([1]; HV SAD, 24 hours after a single dose): 3-5 mmHg | Mean Maximum Percent Change from Baseline, p50 ([1]; HV SAD, all doses and timepoints (N = 24)): −15.6% | Mean Absolute Change in p50 (mmHg) ([1]; HV single 200 mg): −2.91 mmHg | Mean Absolute Change in p50 (mmHg) ([1]; HV single 400 mg): −3.41 mmHg | Mean Absolute Change in p50 (mmHg) ([1]; HV single 700 mg): −4.85 mmHg | Mean Absolute Change in p50 (mmHg) ([1]; HV single 1000 mg): −5.05 mmHg | aromatase inhibition (aromatase): has not shown evidence of inhibition of aromatase; also recorded: absence of aromatase inhibition
